Test results reported in article PMC10029155, “Harnessing protein sensing ability of electrochemical biosensors via a controlled peptide receptor–electrode interface” (Journal of Nanobiotechnology, 2023).

Assays:
cathepsin S (CTSS) = assay: SWV specificity test against CTSS; assay type: binding; settings: 125 nM protein
Method: (§1) A conventional three-electrode system including an Au working electrode (diameter: 5 mm, surface area: 19.6 mm^2), a Pt counter electrode, and an Ag/AgCl reference electrode, was used for the electrochemical measurements. The EIS, CV, and SWV measurements were conducted in the presence of 2.5 mM ferro/ferricyanide in 1 M KNO3 using a CHI 660E instrument (CH Instruments, Austin, TX, USA) at 25 °C. The EIS measurements were carried out by applying a 10 mV signal with a frequency ranging from 0.01 Hz to 100 kHz. The CV tests were performed between − 0.6 and 0.6 V (scan range) at a scan rate of 100 mVs^−1. […]
(§2) The electrochemical response of the phage sensor for cathepsin B detection was evaluated by the specificity analysis of the developed phage. […] The relative binding affinity of the phage-on-a-sensor with different phage concentrations was measured. […] The binding constants of the developed phage sensor and the relative current change (ΔI%) with different cathepsin B concentrations were measured by SWV.
(§3) To select potential high-affinity peptides from the phage clones, the five synthetic peptides were immobilized on the Au electrode via streptavidin–biotin and MUA-EDC/NHS coupling methods. Each preparation step of the peptide sensor was recorded using CV, EIS, and SWV (Additional file 1: Fig. S3a–c), and the relative binding affinities for cathepsin B were measured by SWV. […]

cathepsin B [1] = target: T1, cathepsin B (Homo sapiens, UniProt P07858); assay: SWV electrochemical binding to cathepsin B (relative current change, binding constant); settings: for relative binding affinity to cathepsin B (specificity): 125 nM protein, peptide 50 μM or phage ~10^12 PFU/mL immobilized
T1 construct: Cathepsin B proteins, purified from human liver (~ 27.5 kDa, > 95% purity); purchased ENZO (NY, USA); host or cells: purified from human liver
Method: A conventional three-electrode system including an Au working electrode (diameter: 5 mm, surface area: 19.6 mm^2), a Pt counter electrode, and an Ag/AgCl reference electrode, was used for the electrochemical measurements. The EIS, CV, and SWV measurements were conducted in the presence of 2.5 mM ferro/ferricyanide in 1 M KNO3 using a CHI 660E instrument (CH Instruments, Austin, TX, USA) at 25 °C. The EIS measurements were carried out by applying a 10 mV signal with a frequency ranging from 0.01 Hz to 100 kHz. The CV tests were performed between − 0.6 and 0.6 V (scan range) at a scan rate of 100 mVs^−1. The SWV tests were carried out in the potential range of − 0.4 to 0.6 V with an amplitude of 5 mV, frequency of 10 Hz, and a scan interval of 4 mV. The relative current change (ΔI%) was obtained by considering that the peak current decreased after the immobilization of the peptides and/or phages and cathepsin B protein interaction using the following equation:1 ΔI%=I0-I/I0×100 where I0 refers to phage-on-a-sensor, peptide-on-a-sensor, or peptide-on-a-AuNPs/MXene sensor and/or peptide oxidation current before cathepsin B introduction, and I refers to Au-protein oxidation current after cathepsin B introduction.

BSA = assay: SWV specificity test against BSA (control); assay type: binding; settings: 125 nM protein, negative control protein
Method: as §1, §2, §3

cathepsin L1 (CTSL1) = assay: SWV specificity test against CTSL1; assay type: binding; settings: 125 nM protein
Method: as §1, §2, §3

cathepsin B [2] = target: T1, cathepsin B; assay: ELISA binding of peptide-displaying phage clones to immobilized biotinylated cathepsin B; settings: 405 nm
Method: A 96 well streptavidin-coated microplate was washed three times with PBS, and the biotinylated cathepsin B was immobilized on it with mild shaking at 25 °C for 1 h. The unbound proteins were removed and blocked with a blocking buffer (5% BSA in NaHCO3) at 25 °C for 1 h. The wells were washed six times with 0.1% PBST, and 100 µL of the amplified phages (10^11 PFU/mL), i.e., the capture receptors, were added and incubated for 1 h at 25 °C. After washing six times with PBST again, the HRP-conjugated anti-M13 monoclonal antibodies (1:5000 dilution with blocking buffer), i.e., the detecting antibodies, were added and incubated at 25 °C for 1 h. The residual solution was discarded, and the microplate was washed again with the same buffer. Freshly prepared HRP substrate (ABTS) was added, and the absorbance was measured at 405 nm using a Multiskan FC microplate photometer (Thermo Scientific, Waltham, MA, USA).
The binding affinities of the selected phage clones for the immobilized cathepsin B were tested by ELISA. For these experiments, 250 nM of cathepsin B or the same amount of BSA as a negative control was immobilized on a well, followed by 10^11 PFU/mL of phage addition. The relative binding affinity of each phage was detected using HRP-conjugated M13 antibodies. […] The CTSB 4-1 clone was the only phage with a high binding affinity to cathepsin B, motivating further characterization of its binding interaction to confirm its specific binding to cathepsin B with increasing cathepsin B concentration (Fig. 2c).

Sequence | relative binding affinity to CTSS (specificity) (cathepsin S (CTSS)) | relative binding affinity to cathepsin B (specificity) (cathepsin B [1]) | relative binding affinity to BSA (specificity) (BSA) | relative binding affinity to CTSL1 (specificity) (cathepsin L1 (CTSL1)) | relative binding affinity for all the tested proteins, comparison between peptides (cathepsin B [1]; 125 nM cathepsin B, CTSS, CTSL1 or BSA, peptide 50 μM) | relative binding affinity for cathepsin B (ELISA) (cathepsin B [2]; 250 nM cathepsin B immobilized, 10^11 PFU/mL phage, HRP-conjugated anti-M13 antibody, ABTS, 25 °C, 1 h, triplicate) | dose response of binding with cathepsin B concentration (cathepsin B [2]; cathepsin B 3.906 to 250 nM, ELISA) | SC50 (cathepsin B [2]; cathepsin B 6.25 to 250 nM, ELISA, printed in picture Fig. 2c)
HRHRRHRHRKHHK - biotin [CTSB BP4] | non-specific binding affinity | much lower binding affinity for cathepsin B than for CTSB BP3 | non-specific binding affinity | non-specific binding affinity |  |  |  | 
WDMWPSMDWKAEK - biotin [CTSB BP1] |  | did not bind to cathepsin B |  |  | comparable to those of CTSB BP2 and CTSB BP5 |  |  | 
WDMWPSMDWKAE [CTSB 4-1, M13 phage clone displaying …, identified in four rounds of the biopanning] |  |  |  |  |  | strong cathepsin B binding | dose-dependent binding affinity with increasing cathepsin B concentration | 44.27 nM
